From patent US12404291B2, “Antimicrobial agent” (priority 2019, dated 2025) come the findings set out here.

One may read the solubility as how much of the substance goes into solution per volume. Higher therefore signals much dissolved substance. One may read the MIC as the lowest concentration that inhibits growth of the organism. Low readings indicate greater potency, high ones weaker potency. For orientation: MBC means the lowest tested concentration that kills the bacteria rather than only halting them. Lower therefore signals greater bactericidal potency.

Converted amounts (≈) assume the structure as drawn.

One data set has as its system HPRT. As to the kind of experiment: HPRT forward mutation assay. In kind it is cell-based. Particulars: concentrations above the compounds MIC's. The text has this: It is therefore confirmed that the compounds are non-mutagenic to mammalian DNA.
Another data set is described as follows: physchem. The class given is physicochemical. Particulars: pH 7.4, aqueous buffer, kinetic from dmso stock. As for the experimental part: Table 12 illustrates the kinetic solubility of complexes 4^2+ and 4^4+ were tested and compared to a soluble positive control drug (Nicardipine). Both compounds passed the DMPK analysis with an optimal solubility and kinetic stability.

The subject of data set [1] is E. faecalis pathogenic (V583). As to the kind of experiment: MIC and MBC determination. The class given is cell-based, Enterococcus faecalis. As for the experimental part: (§1) The bioactivity of these compounds was investigated with respect to the wild type K12-derivative MG1655 and uropathogenic multidrug resistant EC958 ST131 strains of E. coli. Another gram-positive bacteria, ESKAPE bacteria—the pathogenic gastrointestinal strain of Enterococcus faecalis, V583 (ATCC700802)—which is a major opportunistic pathogen (and a leading cause of urinary tract infections) was also tested with respect to the compounds. The minimum inhibitory concentration, MIC, of the four complexes was obtained in both glucose defined minimal media (GDMM) and nutrient rich Mueller-Hinton-II (MH-II) (FIG. 7).
(§2) The same parameters and conditions used above to determine MIC and MBC values with respect to compounds 1^4+ to 4^4+ were employed in order to test the MIC and MBC values of complexes 1^2+ to 4^2+.
(§3) The MIC and MBC values were determined as above.

The subject of data set [2] is E. coli wild type (MG1655). The experiment in a line: MIC and MBC determination. In kind it is cell-based. As for the experimental part:
as §1, §2, §3

A further data set concerns K. pneumonia biofilm. As to the kind of experiment: Biofilm activity profile (MBEC). In kind it is cell-based. The conditions noted are these: Gram-negative biofilm.
In another data set the test system is P. aeruginosa biofilm. The experiment in a line: Biofilm activity profile (MBEC). The class given is cell-based. Particulars: Gram-negative biofilm.
Another data set deals with A. baumannii biofilm. As to the kind of experiment: Biofilm activity profile (MBEC). The conditions noted are these: Gram-negative biofilm. The class given is cell-based.

As for `N.N.[Cl][Pt][Cl]` [Cisplatin], the Mutations in the data set on HPRT was determined as 65.5 per 1 × 10^5 viable cells.
`COC(=O)C1=C(C)NC(C)=C(C(=O)OCCN(C)Cc2ccccc2)C1c1cccc([N+](=O)[O-])c1` (stereo not drawn) [Nicardipine]: the solubility was 20.8 µM (≈ 10 µg/mL) in the data set “physchem” and 20.8 µM (≈ 9.97 µg/mL) in the data set “physchem” (Solubility).
With `CC1(C)S[C@@H]2[C@H](NC(=O)[C@H](N)c3ccccc3)C(=O)N2[C@H]1C(=O)O` [ampicillin], the MIC was determined as 0.5 µM (≈ 0.175 µg/mL) in data set [1] (Enterococcus faecalis, MH-II) and 1 µM (≈ 0.349 µg/mL) in data set [1] (Enterococcus faecalis, GDMM). For the same compound, the MBC worked out at 6.3 µM (≈ 2.2 µg/mL) in data set [1] (Enterococcus faecalis, GDMM); 6.3 µM (≈ 2.2 µg/mL) in data set [1] (MH-II); 11.4 µM (≈ 3.98 µg/mL) in data set [2] (Escherichia coli, MG1655, GDMM); 11.4 µM (≈ 3.98 µg/mL) in data set [2] (MH-II).
Turning to Gentamicin, the “Minimum Biofilm Eradication Concentration (MBEC)” value with K. pneumonia biofilm came to 18 µM; in the data set with P. aeruginosa biofilm, 18 µM; in the data set with A. baumannii biofilm it was 9 µM.
